Results as given in ChEMBL document CHEMBL3991601, “The target landscape of clinical kinase drugs” (Science, 2017).
Calls of active or inactive are those of the source. For most assays here, no stated cut-off is given here; in the data, actives have a measured Kd and inactives only a lower limit.

Tests used:
[1] = biological target: Serine/threonine-protein kinase MRCK beta (Homo sapiens, UniProt Q9Y5S2)
[2] = biological target: Ribosomal protein S6 kinase alpha-6 (Homo sapiens, UniProt Q9UK32)
[3] = biological target: Ribosomal protein S6 kinase beta-1 (Homo sapiens, UniProt P23443)
[4] = biological target: T1, Discoidin domain-containing receptor 2 (Homo sapiens, UniProt Q16832)
T1 sequence (Q16832 whole entry): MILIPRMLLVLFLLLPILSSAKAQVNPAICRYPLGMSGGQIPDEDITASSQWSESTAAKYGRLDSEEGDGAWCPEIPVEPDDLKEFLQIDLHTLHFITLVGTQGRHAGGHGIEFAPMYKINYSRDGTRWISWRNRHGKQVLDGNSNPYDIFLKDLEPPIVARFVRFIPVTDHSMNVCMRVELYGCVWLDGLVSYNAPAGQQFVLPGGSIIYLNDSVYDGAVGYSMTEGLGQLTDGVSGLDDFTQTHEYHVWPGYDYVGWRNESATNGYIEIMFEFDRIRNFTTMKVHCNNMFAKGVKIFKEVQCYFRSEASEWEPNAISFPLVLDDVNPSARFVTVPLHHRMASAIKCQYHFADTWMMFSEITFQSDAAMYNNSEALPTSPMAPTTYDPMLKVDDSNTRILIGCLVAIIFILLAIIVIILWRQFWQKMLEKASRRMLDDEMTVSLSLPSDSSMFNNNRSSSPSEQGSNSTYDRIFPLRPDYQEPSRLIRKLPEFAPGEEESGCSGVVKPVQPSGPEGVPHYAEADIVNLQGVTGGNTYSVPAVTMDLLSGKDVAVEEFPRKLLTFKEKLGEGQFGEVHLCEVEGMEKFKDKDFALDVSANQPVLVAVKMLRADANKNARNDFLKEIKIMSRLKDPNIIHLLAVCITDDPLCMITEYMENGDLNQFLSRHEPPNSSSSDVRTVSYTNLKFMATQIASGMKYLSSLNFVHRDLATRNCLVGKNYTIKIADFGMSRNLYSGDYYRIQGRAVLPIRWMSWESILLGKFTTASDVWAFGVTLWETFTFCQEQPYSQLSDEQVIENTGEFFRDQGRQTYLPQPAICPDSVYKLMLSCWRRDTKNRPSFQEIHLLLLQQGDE

[5] = biological target: Mitogen-activated protein kinase kinase kinase 4 (Homo sapiens, UniProt Q9Y6R4)
[6] = biological target: NADH dehydrogenase [ubiquinone] 1 alpha subcomplex subunit 13 (Homo sapiens, UniProt Q9P0J0)
[7] = biological target: Tyrosine-protein kinase ABL1 (Homo sapiens, UniProt P00519)
[8] = biological target: T2, Mitogen-activated protein kinase kinase kinase kinase 3 (Homo sapiens, UniProt Q8IVH8)
T2 sequence (Q8IVH8 whole entry): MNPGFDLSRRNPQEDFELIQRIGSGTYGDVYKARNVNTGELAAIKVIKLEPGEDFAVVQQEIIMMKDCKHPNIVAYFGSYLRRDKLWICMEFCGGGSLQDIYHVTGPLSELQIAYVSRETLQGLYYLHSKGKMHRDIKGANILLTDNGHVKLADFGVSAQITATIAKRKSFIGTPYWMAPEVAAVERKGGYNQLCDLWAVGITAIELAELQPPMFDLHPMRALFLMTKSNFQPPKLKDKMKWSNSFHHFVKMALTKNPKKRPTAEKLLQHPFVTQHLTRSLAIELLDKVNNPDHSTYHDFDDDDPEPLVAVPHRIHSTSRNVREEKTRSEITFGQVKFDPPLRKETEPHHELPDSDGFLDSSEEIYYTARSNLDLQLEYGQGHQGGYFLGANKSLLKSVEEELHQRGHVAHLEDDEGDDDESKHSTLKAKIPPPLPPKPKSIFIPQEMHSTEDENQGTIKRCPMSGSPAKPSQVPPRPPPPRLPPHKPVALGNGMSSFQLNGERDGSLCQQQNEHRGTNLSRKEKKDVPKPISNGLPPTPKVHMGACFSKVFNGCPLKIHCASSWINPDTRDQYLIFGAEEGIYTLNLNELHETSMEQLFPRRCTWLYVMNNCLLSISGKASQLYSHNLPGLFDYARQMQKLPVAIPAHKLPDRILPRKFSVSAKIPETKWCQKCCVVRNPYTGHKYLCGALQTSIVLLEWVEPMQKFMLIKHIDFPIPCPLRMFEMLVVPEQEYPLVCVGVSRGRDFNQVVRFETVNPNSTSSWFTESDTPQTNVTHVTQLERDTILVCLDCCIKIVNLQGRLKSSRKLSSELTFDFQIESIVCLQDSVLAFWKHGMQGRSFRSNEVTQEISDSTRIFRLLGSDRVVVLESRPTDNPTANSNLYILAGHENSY

[9] = biological target: T3, cGMP-dependent protein kinase 1 (Homo sapiens, UniProt Q13976)
T3 sequence (Q13976 whole entry): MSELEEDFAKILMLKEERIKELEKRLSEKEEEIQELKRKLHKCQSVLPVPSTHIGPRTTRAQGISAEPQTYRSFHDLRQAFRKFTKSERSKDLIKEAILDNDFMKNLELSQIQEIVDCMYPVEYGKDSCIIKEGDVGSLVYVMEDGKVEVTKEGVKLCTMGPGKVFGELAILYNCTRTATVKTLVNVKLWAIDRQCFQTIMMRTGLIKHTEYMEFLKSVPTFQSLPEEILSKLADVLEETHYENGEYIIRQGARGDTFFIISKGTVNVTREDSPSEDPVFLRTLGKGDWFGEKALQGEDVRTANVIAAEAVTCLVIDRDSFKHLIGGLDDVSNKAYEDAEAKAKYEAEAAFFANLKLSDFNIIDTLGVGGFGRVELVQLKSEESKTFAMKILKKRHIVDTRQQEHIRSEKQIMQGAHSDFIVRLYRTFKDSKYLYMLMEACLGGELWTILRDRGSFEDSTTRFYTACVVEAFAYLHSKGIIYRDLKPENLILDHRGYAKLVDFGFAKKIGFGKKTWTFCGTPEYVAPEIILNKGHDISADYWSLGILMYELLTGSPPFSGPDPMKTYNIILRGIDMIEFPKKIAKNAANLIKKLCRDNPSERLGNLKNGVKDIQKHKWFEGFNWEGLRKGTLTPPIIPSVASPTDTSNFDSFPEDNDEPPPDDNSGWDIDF

Serine/threonine-protein kinase MRCK beta, sequence (Q9Y5S2 whole entry): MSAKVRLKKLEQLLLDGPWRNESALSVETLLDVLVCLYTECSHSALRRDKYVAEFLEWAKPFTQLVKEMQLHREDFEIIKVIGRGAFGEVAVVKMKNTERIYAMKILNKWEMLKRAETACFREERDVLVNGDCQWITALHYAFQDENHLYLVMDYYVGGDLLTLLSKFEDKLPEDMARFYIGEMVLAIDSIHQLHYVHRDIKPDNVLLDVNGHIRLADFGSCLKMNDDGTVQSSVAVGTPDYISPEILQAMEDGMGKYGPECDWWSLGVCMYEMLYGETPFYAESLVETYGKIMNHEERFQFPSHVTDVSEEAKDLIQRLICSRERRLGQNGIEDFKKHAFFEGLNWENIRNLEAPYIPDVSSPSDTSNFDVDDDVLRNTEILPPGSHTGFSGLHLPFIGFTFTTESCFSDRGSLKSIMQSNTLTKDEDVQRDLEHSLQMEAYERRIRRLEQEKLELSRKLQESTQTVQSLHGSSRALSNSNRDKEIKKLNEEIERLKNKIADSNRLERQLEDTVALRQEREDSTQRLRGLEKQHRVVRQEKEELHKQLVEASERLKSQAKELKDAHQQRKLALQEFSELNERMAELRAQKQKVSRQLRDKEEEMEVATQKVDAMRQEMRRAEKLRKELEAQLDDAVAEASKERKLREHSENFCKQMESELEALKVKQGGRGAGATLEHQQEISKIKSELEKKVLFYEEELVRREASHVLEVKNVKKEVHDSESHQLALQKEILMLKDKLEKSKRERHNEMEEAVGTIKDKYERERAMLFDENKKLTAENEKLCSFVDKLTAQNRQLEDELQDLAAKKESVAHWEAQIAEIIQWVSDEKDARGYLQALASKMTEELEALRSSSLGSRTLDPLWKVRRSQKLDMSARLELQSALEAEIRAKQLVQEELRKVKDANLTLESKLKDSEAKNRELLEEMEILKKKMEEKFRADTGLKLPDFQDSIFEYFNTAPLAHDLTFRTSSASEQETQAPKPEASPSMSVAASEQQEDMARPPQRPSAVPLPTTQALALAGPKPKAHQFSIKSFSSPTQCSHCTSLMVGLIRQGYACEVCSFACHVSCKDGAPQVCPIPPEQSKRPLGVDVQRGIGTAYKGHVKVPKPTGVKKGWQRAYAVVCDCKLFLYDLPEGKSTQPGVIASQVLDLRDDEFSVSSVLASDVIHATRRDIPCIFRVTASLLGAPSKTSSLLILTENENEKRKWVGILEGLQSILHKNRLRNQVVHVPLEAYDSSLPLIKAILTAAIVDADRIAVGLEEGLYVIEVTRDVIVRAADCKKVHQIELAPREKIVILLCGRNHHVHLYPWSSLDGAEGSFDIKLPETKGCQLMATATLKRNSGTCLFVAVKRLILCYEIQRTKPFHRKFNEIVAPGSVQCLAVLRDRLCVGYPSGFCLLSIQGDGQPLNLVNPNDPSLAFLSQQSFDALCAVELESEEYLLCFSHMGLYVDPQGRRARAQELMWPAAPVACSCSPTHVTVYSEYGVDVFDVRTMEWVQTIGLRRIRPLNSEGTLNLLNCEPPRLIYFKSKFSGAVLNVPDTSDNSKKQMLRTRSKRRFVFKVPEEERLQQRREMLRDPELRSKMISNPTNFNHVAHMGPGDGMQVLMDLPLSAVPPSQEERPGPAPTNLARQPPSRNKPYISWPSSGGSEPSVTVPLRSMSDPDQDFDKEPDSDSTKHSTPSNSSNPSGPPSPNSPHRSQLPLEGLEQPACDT
Mitogen-activated protein kinase kinase kinase 4, sequence (Q9Y6R4 whole entry): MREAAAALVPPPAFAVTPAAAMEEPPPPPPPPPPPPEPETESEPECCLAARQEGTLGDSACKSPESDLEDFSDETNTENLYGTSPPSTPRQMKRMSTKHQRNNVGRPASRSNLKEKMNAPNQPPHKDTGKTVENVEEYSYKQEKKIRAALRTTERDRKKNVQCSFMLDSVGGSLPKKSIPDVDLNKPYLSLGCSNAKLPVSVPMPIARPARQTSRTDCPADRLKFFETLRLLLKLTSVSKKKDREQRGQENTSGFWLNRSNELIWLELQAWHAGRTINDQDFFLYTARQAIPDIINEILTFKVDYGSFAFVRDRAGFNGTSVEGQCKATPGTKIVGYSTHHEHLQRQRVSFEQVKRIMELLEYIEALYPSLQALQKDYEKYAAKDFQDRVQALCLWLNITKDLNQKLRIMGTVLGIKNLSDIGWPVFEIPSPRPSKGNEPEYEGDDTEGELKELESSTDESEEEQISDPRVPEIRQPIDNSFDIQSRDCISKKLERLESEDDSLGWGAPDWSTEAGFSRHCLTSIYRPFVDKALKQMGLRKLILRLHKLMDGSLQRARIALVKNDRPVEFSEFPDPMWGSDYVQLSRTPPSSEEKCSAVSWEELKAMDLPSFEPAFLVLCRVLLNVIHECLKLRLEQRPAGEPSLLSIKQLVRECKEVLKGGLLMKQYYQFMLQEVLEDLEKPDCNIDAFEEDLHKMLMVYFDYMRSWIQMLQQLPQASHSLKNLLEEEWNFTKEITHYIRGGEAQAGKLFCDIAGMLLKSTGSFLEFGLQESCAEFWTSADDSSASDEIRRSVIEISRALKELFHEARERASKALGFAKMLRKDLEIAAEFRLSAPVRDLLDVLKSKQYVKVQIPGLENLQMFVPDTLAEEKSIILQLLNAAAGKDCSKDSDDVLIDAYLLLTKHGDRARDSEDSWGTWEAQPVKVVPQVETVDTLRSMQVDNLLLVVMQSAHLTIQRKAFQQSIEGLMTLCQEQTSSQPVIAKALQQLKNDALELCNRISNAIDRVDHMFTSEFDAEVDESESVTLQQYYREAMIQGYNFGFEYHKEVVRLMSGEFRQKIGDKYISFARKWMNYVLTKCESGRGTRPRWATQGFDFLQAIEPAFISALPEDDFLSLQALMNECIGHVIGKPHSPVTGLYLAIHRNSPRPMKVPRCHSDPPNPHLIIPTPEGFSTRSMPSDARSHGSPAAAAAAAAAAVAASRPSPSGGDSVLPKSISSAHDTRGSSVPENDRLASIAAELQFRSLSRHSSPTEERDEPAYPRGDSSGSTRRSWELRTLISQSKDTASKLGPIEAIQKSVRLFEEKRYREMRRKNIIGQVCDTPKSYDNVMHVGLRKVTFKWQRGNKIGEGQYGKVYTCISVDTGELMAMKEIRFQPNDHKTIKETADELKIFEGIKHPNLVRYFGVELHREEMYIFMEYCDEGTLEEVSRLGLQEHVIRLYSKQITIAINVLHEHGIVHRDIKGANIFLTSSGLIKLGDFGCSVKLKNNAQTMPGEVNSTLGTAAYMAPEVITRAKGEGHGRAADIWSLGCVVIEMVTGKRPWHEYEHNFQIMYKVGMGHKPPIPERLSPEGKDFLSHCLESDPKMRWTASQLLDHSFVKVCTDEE
NADH dehydrogenase [ubiquinone] 1 alpha subcomplex subunit 13, sequence (Q9P0J0 whole entry, one chain of several): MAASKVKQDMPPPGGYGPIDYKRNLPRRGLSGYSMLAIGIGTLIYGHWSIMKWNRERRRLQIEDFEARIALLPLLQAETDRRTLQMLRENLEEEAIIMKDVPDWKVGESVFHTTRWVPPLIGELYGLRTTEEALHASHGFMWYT
Tyrosine-protein kinase ABL1, sequence (P00519 whole entry): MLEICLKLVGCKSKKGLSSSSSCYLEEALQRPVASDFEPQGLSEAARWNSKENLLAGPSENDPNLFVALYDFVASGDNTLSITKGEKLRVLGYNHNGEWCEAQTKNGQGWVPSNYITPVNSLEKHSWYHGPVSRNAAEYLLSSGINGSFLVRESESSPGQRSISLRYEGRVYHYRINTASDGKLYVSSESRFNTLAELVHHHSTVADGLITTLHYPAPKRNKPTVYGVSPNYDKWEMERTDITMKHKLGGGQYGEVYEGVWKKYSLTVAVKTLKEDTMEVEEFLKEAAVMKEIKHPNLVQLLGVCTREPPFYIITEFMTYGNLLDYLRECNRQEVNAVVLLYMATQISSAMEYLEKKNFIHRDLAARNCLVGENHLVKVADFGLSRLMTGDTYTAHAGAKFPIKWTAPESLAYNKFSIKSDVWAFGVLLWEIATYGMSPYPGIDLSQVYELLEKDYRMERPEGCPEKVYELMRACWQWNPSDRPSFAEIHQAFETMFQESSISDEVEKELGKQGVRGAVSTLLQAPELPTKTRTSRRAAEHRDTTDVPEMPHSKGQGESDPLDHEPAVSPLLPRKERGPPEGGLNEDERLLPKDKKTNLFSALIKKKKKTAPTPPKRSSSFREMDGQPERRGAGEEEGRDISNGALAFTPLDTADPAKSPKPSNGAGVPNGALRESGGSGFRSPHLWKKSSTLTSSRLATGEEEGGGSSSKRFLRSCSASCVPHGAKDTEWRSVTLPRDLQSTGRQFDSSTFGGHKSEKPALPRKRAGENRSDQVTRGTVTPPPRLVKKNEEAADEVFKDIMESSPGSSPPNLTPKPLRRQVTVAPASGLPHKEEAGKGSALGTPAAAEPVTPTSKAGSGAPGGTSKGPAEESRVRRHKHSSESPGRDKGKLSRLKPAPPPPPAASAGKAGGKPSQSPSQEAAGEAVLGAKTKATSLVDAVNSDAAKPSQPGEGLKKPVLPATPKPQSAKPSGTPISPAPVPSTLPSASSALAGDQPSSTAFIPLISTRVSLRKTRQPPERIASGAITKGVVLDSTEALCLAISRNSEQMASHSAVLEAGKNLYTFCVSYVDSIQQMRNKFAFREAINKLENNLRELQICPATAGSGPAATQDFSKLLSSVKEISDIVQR
Ribosomal protein S6 kinase beta-1, sequence (P23443 whole entry, the tested form may be a part): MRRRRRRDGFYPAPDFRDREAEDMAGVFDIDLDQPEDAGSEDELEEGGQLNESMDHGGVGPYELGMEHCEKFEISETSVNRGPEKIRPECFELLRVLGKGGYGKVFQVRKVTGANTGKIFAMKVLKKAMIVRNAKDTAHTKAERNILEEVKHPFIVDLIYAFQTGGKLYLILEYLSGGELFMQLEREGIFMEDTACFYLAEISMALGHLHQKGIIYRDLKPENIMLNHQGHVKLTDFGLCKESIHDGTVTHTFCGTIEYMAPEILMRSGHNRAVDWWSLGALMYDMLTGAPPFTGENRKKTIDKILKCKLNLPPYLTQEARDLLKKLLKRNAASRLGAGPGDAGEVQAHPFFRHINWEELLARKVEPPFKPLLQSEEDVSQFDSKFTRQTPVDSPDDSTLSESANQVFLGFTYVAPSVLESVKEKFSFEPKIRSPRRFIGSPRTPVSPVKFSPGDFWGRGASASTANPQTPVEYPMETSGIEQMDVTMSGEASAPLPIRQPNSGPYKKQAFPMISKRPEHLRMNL

Compound | Kd [1] | Kd [2] | Kd [3] | Kd [4] | Kd [5] | Kd [6] | Kd [7] | Kd [8] | Kd [9]
CNC(=O)c1cccc(-c2ccc3c(N4CCOC[C@@H]4C)nc(N4CCOC[C@@H]4C)nc3n2)c1 [VISTUSERTIB] | > 30 µM (inactive) | > 30 µM (inactive) | > 30 µM (inactive) | > 30 µM (inactive) | > 30 µM (inactive) | > 30 µM (inactive) | > 30 µM (inactive) | > 30 µM (inactive) | > 30 µM (inactive)
c1cc(OCCN2CCCCC2)cc(-c2n[nH]c3ccc(-c4nc[nH]n4)cc23)c1 [CC-401] | > 30 µM (inactive) | > 30 µM (inactive) | > 30 µM (inactive) | > 30 µM (inactive) | > 30 µM (inactive) | > 30 µM (inactive) | > 30 µM (inactive) | > 30 µM (inactive) | > 30 µM (inactive)
C=CC(=O)Nc1cc(Nc2nccc(-c3cn(C)c4ccccc34)n2)c(OC)cc1N(C)CCN(C)C [OSIMERTINIB] | > 30 µM (inactive) | > 30 µM (inactive) | > 30 µM (inactive) | > 30 µM (inactive) | > 30 µM (inactive) | > 30 µM (inactive) | > 30 µM (inactive) | > 30 µM (inactive) | > 30 µM (inactive)
COc1cc(Nc2ncc(F)c(Nc3ccc4c(n3)N(COP(=O)(O)O)C(=O)C(C)(C)O4)n2)cc(OC)c1OC [FOSTAMATINIB] | > 30 µM (inactive) | > 30 µM (inactive) | > 30 µM (inactive) | > 30 µM (inactive) | > 30 µM (inactive) | > 30 µM (inactive) | > 30 µM (inactive) | > 30 µM (inactive) | > 30 µM (inactive)
COc1ccc2c(OCc3nnc4ccc(-c5ccccc5)nn34)ccnc2c1 [AMG-208] | > 30 µM (inactive) | > 30 µM (inactive) | > 30 µM (inactive) | > 30 µM (inactive) | > 30 µM (inactive) | > 30 µM (inactive) | > 30 µM (inactive) | > 30 µM (inactive) | > 30 µM (inactive)
CC[C@@](C)(Nc1ccnc(-c2c[nH]c3ncccc23)n1)C(=O)NCC(F)(F)F [DECERNOTINIB] | 0.116 µM (active) | > 30 µM (inactive) | > 30 µM (inactive) | > 30 µM (inactive) | > 30 µM (inactive) | > 30 µM (inactive) | 0.842 µM | > 30 µM (inactive) | > 30 µM (inactive)
Cc1c(Cn2c(C)nc3c(C(=O)O)cc(N4CCOCC4)cc32)cccc1C(F)(F)F [GSK-2636771] | > 30 µM (inactive) | > 30 µM (inactive) | > 30 µM (inactive) | > 30 µM (inactive) | > 30 µM (inactive) | > 30 µM (inactive) | > 30 µM (inactive) | > 30 µM (inactive) | > 30 µM (inactive)
NC(=O)c1ccc(N(C(N)=O)c2c(F)cccc2F)nc1-c1ccc(F)cc1F [VX-702] | > 30 µM (inactive) | > 30 µM (inactive) | > 30 µM (inactive) | > 30 µM (inactive) | > 30 µM (inactive) | > 30 µM (inactive) | > 30 µM (inactive) | > 30 µM (inactive) | > 30 µM (inactive)
COCCN1CCN(Cc2ccc(-c3n[nH]c4c3C(=O)c3c(NC(=O)NN5CCOCC5)cccc3-4)cc2)CC1 [RGB-286638] | 1.02 µM (active) | > 30 µM (inactive) | > 30 µM (inactive) | > 30 µM (inactive) | > 30 µM (inactive) | > 30 µM (inactive) | > 30 µM (inactive) | > 30 µM (inactive) | > 30 µM (inactive)
CCN1CCN(Cc2ccc(Nc3ncc(F)c(-c4cc(F)c5nc(C)n(C(C)C)c5c4)n3)nc2)CC1 [ABEMACICLIB] | > 30 µM (inactive) | > 30 µM (inactive) | > 30 µM (inactive) | > 30 µM (inactive) | > 30 µM (inactive) | > 30 µM (inactive) | > 30 µM (inactive) | > 30 µM (inactive) | > 30 µM (inactive)
C=CC(=O)Nc1cccc(Nc2nc(Nc3ccc(N4CCN(C(C)=O)CC4)cc3OC)ncc2C(F)(F)F)c1 [ROCILETINIB] | > 30 µM (inactive) | > 30 µM (inactive) | > 30 µM (inactive) | > 30 µM (inactive) | > 30 µM (inactive) | > 30 µM (inactive) | > 30 µM (inactive) | > 30 µM (inactive) | > 30 µM (inactive)
O=C(NOC[C@H](O)CO)c1ccc(F)c(F)c1Nc1ccc(I)cc1F [MIRDAMETINIB] | > 30 µM (inactive) | > 30 µM (inactive) | > 30 µM (inactive) | > 30 µM (inactive) | > 30 µM (inactive) | > 30 µM (inactive) | > 30 µM (inactive) | > 30 µM (inactive) | > 30 µM (inactive)
O=C(NC[C@H](O)CO)c1ccncc1Nc1ccc(I)cc1F [PIMASERTIB] | > 30 µM (inactive) | > 30 µM (inactive) | > 30 µM (inactive) | > 30 µM (inactive) | > 30 µM (inactive) | > 30 µM (inactive) | > 30 µM (inactive) | > 30 µM (inactive) | > 30 µM (inactive)
Cc1cc(-c2cc(OC(=O)c3ccccc3)ccc2Cl)cc2nnc(Nc3ccc(OCCN4CCCC4)cc3)nc12 [TG100-801] | > 30 µM (inactive) | > 30 µM (inactive) | > 30 µM (inactive) | > 30 µM (inactive) | > 30 µM (inactive) | > 30 µM (inactive) | 10.7 µM (active) | > 30 µM (inactive) | > 30 µM (inactive)
O=C(Nc1ccc(OC(F)(F)F)cc1)c1sccc1NCc1ccnc2ccccc12 [OSI-930] | > 30 µM (inactive) | > 30 µM (inactive) | > 30 µM (inactive) | > 30 µM (inactive) | > 30 µM (inactive) | > 30 µM (inactive) | > 30 µM (inactive) | > 30 µM (inactive) | > 30 µM (inactive)
